Data as given in ChEMBL document CHEMBL1795312, “Insights into the structural requirements of farnesyltransferase inhibitors as potential anti-tumor agents based on 3D-QSAR CoMFA and CoMSIA models” (Eur J Med Chem, 2008).

test: Inhibition of farnesyltransferase

SMILES | pIC50
COC(=O)c1ccc(COC(c2ccc(C#N)c(-c3ccccc3C(F)(F)F)c2)c2cncn2C)nc1 (stereo not drawn) | 8.04
Cn1cncc1C(OCc1ccc(C#N)c(N2CCOCC2)n1)c1ccc(C#N)c(-c2ccccc2C(F)(F)F)c1 (stereo not drawn) | 8.88
Cc1ccccc1-c1cc(C(OCc2ccc(OC(F)(F)F)cc2)c2cncn2C)ccc1C#N (stereo not drawn) | 7.79
Cc1ccccc1-c1cc(C(OCc2ccc(C(C)C)cc2)c2cncn2C)ccc1C#N (stereo not drawn) | 7.29
Cc1ccccc1-c1cc(C(OCc2cccc(I)c2)c2cncn2C)ccc1C#N (stereo not drawn) | 7.69
Cc1ccccc1-c1cc(C(OCc2cccc(OC(F)(F)F)c2)c2cncn2C)ccc1C#N (stereo not drawn) | 8.08
Cc1ccccc1-c1cc(C(OCc2ccc(C(F)(F)F)cc2)c2cncn2C)ccc1C#N (stereo not drawn) | 7.92
N#Cc1ccc(Cn2cncc2COCc2ccc(C#N)cc2-c2cccc(OC(F)(F)F)c2)cc1 | 9.3
Cc1ccc(-c2cc(C#N)ccc2COCc2cncn2Cc2ccc(C#N)cc2)cc1C | 9.22
Cn1cncc1C(OCc1ccc(C#N)c(NCc2cccc(F)c2)n1)c1ccc(C#N)c(-c2ccccc2C(F)(F)F)c1 (stereo not drawn) | 8
Cc1ccccc1-c1cc(C(OCc2cccc3ccccc23)c2cncn2C)ccc1C#N (stereo not drawn) | 7.76
Cc1cccc(-c2cc(C(OCc3ccc(C#N)cc3)c3cncn3C)ccc2C#N)c1C (stereo not drawn) | 8.67
N#Cc1ccc(Cn2cncc2COCc2ccc(C#N)cc2-c2ccc(C(F)(F)F)cc2)cc1 | 8.36
Cc1ccccc1-c1cc(C(OCc2c(Cl)cccc2Cl)c2cncn2C)ccc1C#N (stereo not drawn) | 7.09
Cc1ccccc1-c1cc(C(OCc2ccc(C#N)cc2)c2cncn2C)ccc1C#N (stereo not drawn) | 8.39
CC(=O)N1CCN(c2nc(COC(c3ccc(C#N)c(-c4ccccc4C(F)(F)F)c3)c3cncn3C)ccc2C#N)CC1 (stereo not drawn) | 8.58
Cn1cncc1C(OCc1ccc(C#N)cc1)c1ccc(C#N)c(-c2cccc(Cl)c2Cl)c1 (stereo not drawn) | 8.82
Cc1ccccc1-c1cc(C(OCc2ccc(I)cc2)c2cncn2C)ccc1C#N (stereo not drawn) | 7.88
Cn1cncc1C(OCc1ccc(C#N)c(NCC2CCCO2)n1)c1ccc(C#N)c(-c2ccccc2C(F)(F)F)c1 (stereo not drawn) | 8.17
Cc1ccccc1-c1cc(C(OCc2ccc(-c3ccccc3)cc2)c2cncn2C)ccc1C#N (stereo not drawn) | 7.88
Cn1cncc1C(OCc1ccc(C#N)c(N2CCC[C@@H]2C(=O)O)n1)c1ccc(C#N)c(-c2ccccc2C(F)(F)F)c1 (stereo partly drawn) | 8.44
Cc1ccccc1-c1cc(C(OCc2cccc3cccnc23)c2cncn2C)ccc1C#N (stereo not drawn) | 7.22
Cn1cncc1C(OCc1ccc(C#N)c(N2CCC(O)C2)n1)c1ccc(C#N)c(-c2ccccc2C(F)(F)F)c1 (stereo not drawn) | 8.45
CCOc1cccc(-c2cc(C#N)ccc2COCc2cncn2Cc2ccc(C#N)nc2)c1 | 9.23
CC(C)(C)c1ccc(-c2cc(C#N)ccc2COCc2cncn2Cc2ccc(C#N)cc2)cc1 | 9.35
N#Cc1ccc(Cn2cncc2COCc2ccc(C#N)cc2-c2ccc3ccccc3c2)cc1 | 9.03
CCOc1ccc(-c2cc(C#N)ccc2COCc2cncn2Cc2ccc(C#N)cc2)cc1 | 8.92
N#Cc1ccc(COCc2cncn2Cc2ccc(C#N)nc2)c(-c2cccc(Cl)c2)c1 | 8.52

SMILES | pIC50
COc1cccc(-c2cc(C#N)ccc2COCc2cncn2Cc2ccc(C#N)nc2)c1 | 8.82
N#Cc1ccc(Cn2cncc2COCc2ccc(Cl)cc2-c2cccc(Cl)c2)cc1 | 9.2
N#Cc1ccc(Cn2cncc2COCc2ccc(C#N)cc2-c2ccc3c(c2)OCO3)nc1 | 8.32
N#Cc1ccc(Cn2cncc2COc2ccc(C#N)c(-c3cccc4ccccc34)c2)cc1 | 9.42
N#Cc1ccc(Cn2cncc2COCc2ccc(C#N)cc2-c2ccc(Cl)c(Cl)c2)cc1 | 9.43
N#Cc1ccc(Cn2cncc2COCc2cnc(C#N)cc2-c2cccc(Cl)c2)cc1 | 8.36
COc1ccc(COC(c2ccc(C#N)c(-c3ccccc3C)c2)c2cncn2C)cc1 (stereo not drawn) | 7.22
Cc1ccccc1-c1cc(C(OCc2ccccc2C#N)c2cncn2C)ccc1C#N (stereo not drawn) | 7.2
Cn1cncc1C(OCc1ccc(C#N)c(NCCc2ccccc2)n1)c1ccc(C#N)c(-c2ccccc2C(F)(F)F)c1 (stereo not drawn) | 8.04
CN1CCN(c2nc(COC(c3ccc(C#N)c(-c4ccccc4C(F)(F)F)c3)c3cncn3C)ccc2C#N)CC1 (stereo not drawn) | 8.92
Cc1ccccc1-c1cc(C(OCc2ccccc2Cl)c2cncn2C)ccc1C#N (stereo not drawn) | 7.31
Cn1cncc1C(OCc1ccc(C#N)cc1)c1ccc(C#N)c(-c2ccccc2C(F)(F)F)c1 (stereo not drawn) | 9.09
Cc1ccccc1-c1cc(C(OCc2cnc(Cl)c(Cl)c2)c2cncn2C)ccc1C#N (stereo not drawn) | 7.82
Cn1cncc1C(OCc1ccc(F)c(C(F)(F)F)c1)c1ccc(C#N)c(-c2ccccc2C(F)(F)F)c1 (stereo not drawn) | 8.38
Cc1ccccc1-c1cc(C(OCc2cccc(Br)c2)c2cncn2C)ccc1C#N (stereo not drawn) | 7.88
Cc1ccccc1-c1cc(C(OCc2ccc(F)cc2)c2cncn2C)ccc1C#N (stereo not drawn) | 7.49
Cc1ccccc1-c1cc(C(OCc2cc(Cl)cc(Cl)c2)c2cncn2C)ccc1C#N (stereo not drawn) | 7.72
N#Cc1ccc(Cn2cncc2COCc2ccc(C#N)cc2-c2cccc(Cl)c2)nc1 | 8.76
N#Cc1ccc(Cn2cncc2COCc2ccc(C#N)cc2-c2cccc3ccccc23)cc1 | 8.88
CCOc1cccc(-c2cc(C#N)ccc2COCc2cncn2Cc2ccc(Cl)cc2)c1 | 8.85
N#Cc1ccc(Cn2cncc2COCc2ccc(C#N)cc2-c2ccc(OC(F)(F)F)cc2)cc1 | 9.18
N#Cc1ccc(Cn2cncc2COCc2ccc(C#N)cc2-c2cccc3c2OCO3)cc1 | 9.09
CC(=O)c1ccc(-c2cc(C#N)ccc2COCc2cncn2Cc2ccc(C#N)cc2)cc1 | 8.88
COc1cccc(-c2cc(C#N)ccc2COCc2cncn2Cc2ccc(Cl)cc2)c1 | 8.65
Cc1ccccc1-c1cc(C(OCc2ccc(Cl)c(Cl)c2)c2cncn2C)ccc1C#N (stereo not drawn) | 7.56
Cn1cncc1C(OCc1ccc(C#N)cc1)c1ccc(C#N)c(-c2cccc3ccccc23)c1 (stereo not drawn) | 9.69
Cc1ccccc1-c1cc(C(OCc2ccccc2F)c2cncn2C)ccc1C#N (stereo not drawn) | 7.15

Second part, the compound after the results:

pIC50 | SMILES
7.53 | Cc1ccccc1-c1cc(C(OCc2nc(-c3ccc(Cl)cc3)cs2)c2cncn2C)ccc1C#N (stereo not drawn)
7.06 | Cc1ccccc1-c1cc(C(OCc2ccc(C(C)(C)C)cc2)c2cncn2C)ccc1C#N (stereo not drawn)
7.21 | COC(=O)c1cccc(COC(c2ccc(C#N)c(-c3ccccc3C)c2)c2cncn2C)c1 (stereo not drawn)
8.72 | Cn1cncc1C(OCc1ccc(C#N)cc1)c1ccc(C#N)c(-c2ccccc2C=O)c1 (stereo not drawn)
7.72 | Cc1ccccc1-c1cc(C(OCc2cccc(Cl)c2)c2cncn2C)ccc1C#N (stereo not drawn)
8.21 | Cn1cncc1C(OCc1ccc(C(F)(F)F)c(F)c1)c1ccc(C#N)c(-c2ccccc2C(F)(F)F)c1 (stereo not drawn)
8.76 | Cn1cncc1C(OCc1ccc(Cl)c(Cl)c1)c1ccc(C#N)c(-c2ccccc2C(F)(F)F)c1 (stereo not drawn)
7.92 | Cc1ccccc1-c1cc(C(OCc2ccc(Br)cc2)c2cncn2C)ccc1C#N (stereo not drawn)
8.08 | N#Cc1ccc(COCc2cncn2Cc2ccc(Cl)cc2)c(-c2ccc3c(c2)OCO3)c1
8.74 | Cn1cncc1C(OCc1ccc(C#N)c(N2CCC(CO)CC2)n1)c1ccc(C#N)c(-c2ccccc2C(F)(F)F)c1 (stereo not drawn)
8.12 | Cc1ccccc1-c1cc(C(OCc2ccc([N+](=O)[O-])cc2)c2cncn2C)ccc1C#N (stereo not drawn)
8.88 | Cn1cncc1C(OCc1ccc(C#N)c(N2CCN(CCO)CC2)n1)c1ccc(C#N)c(-c2ccccc2C(F)(F)F)c1 (stereo not drawn)
8.25 | Cn1cncc1C(OCc1ccc(C#N)cc1)c1ccc(C#N)c(-c2ccccc2CO)c1 (stereo not drawn)
8.88 | Cn1cncc1C(OCc1ccc(C#N)c(N2CCCC(O)C2)n1)c1ccc(C#N)c(-c2ccccc2C(F)(F)F)c1 (stereo not drawn)
8.52 | N#Cc1ccc(COCc2cncn2Cc2ccc(C#N)nc2)c(-c2ccc3c(c2)OCO3)c1
9.04 | N#Cc1ccc(OCc2cncn2Cc2ccc(C#N)c(-c3cccc4ccccc34)c2)nc1
8.11 | COc1ccc(-c2cc(C#N)ccc2COCc2cncn2Cc2ccc(C#N)cc2)cn1
8.35 | COc1cccc(-c2cc(C#N)ccc2COCc2cncn2Cc2ccc(C#N)cn2)c1
9.49 | N#Cc1ccc(OCc2cncn2Cc2ccc(C#N)c(-c3cccc4ccccc34)c2)cc1
9.43 | N#Cc1ccc(Cn2cncc2COCc2ccc(C#N)cc2-c2cccc(Cl)c2)cc1
7.95 | Cc1ccccc1-c1cc(C(OCc2ccc(Cl)cc2)c2cncn2C)ccc1C#N (stereo not drawn)
8.11 | Cn1cncc1C(OCc1ccc(C#N)c(NCC2CCOC2)n1)c1ccc(C#N)c(-c2ccccc2C(F)(F)F)c1 (stereo not drawn)
8.76 | CC(=O)NC1CCN(c2nc(COC(c3ccc(C#N)c(-c4ccccc4C(F)(F)F)c3)c3cncn3C)ccc2C#N)C1 (stereo not drawn)
7.42 | Cc1ccccc1-c1cc(C(OCc2cccc(F)c2)c2cncn2C)ccc1C#N (stereo not drawn)
7.88 | Cc1ccccc1-c1cc(C(OCc2cc(Cl)nc(Cl)c2)c2cncn2C)ccc1C#N (stereo not drawn)
7.48 | Cc1ccccc1-c1cc(C(OCc2ccccc2[N+](=O)[O-])c2cncn2C)ccc1C#N (stereo not drawn)
8.69 | Cn1cncc1C(OCc1ccc(C#N)c(N2CCC[C@@H]2CO)n1)c1ccc(C#N)c(-c2ccccc2C(F)(F)F)c1 (stereo partly drawn)
7.88 | CC(=O)Nc1cccc(-c2cc(C#N)ccc2COCc2cncn2Cc2ccc(C#N)cc2)c1
